Source: ChEMBL document CHEMBL1201862, “PubChem BioAssay data set” (2004)
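Interpolation was linear, between the two tested concentrations surrounding the appropriate level; five concentrations were tested over 48 hours in 96-well plates. GI50 marks 50% less growth.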 Active and inactive are the calls of the source. Rule as the data show it: active = GI50 up to about 1.1 µM and inactive = higher.

Columns and labels:
Experiment in all cases: DTP human tumour cell line panel, 48 h
786-0 = system: 786-0
A549 = system: A549
BT-549 = system: BT-549
CAKI-1 = system: CAKI-1
CCRF-CEM = system: CCRF-CEM
COLO 205 = system: COLO 205
DU-145 = system: DU-145
EKVX = system: EKVX
HCC 2998 = system: HCC 2998
HCT-116 = system: HCT-116
HCT-15 = system: HCT-15
HL-60 = system: HL-60
HOP-62 = system: HOP-62
HOP-92 = system: HOP-92
HT-29 = system: HT-29
Hs-578T = system: Hs-578T
IGROV-1 = system: IGROV-1
K562 = system: K562
KM12 = system: KM12
LOX IMVI = system: LOX IMVI
M14 = system: M14
MDA-MB-435 = system: MDA-MB-435
MDA-N = system: MDA-N
MOLT-4 = system: MOLT-4
Malme-3M = system: Malme-3M
NCI-H226 = system: NCI-H226
NCI-H23 = system: NCI-H23
NCI-H460 = system: NCI-H460
NCI-H522 = system: NCI-H522
NCI/ADR-RES = system: NCI/ADR-RES
OVCAR-3 = system: OVCAR-3
OVCAR-4 = system: OVCAR-4
OVCAR-5 = system: OVCAR-5
OVCAR-8 = system: OVCAR-8
PC-3 = system: PC-3
RPMI-8226 = system: RPMI-8226
RXF 393 = system: RXF 393
SF-268 = system: SF-268
SF-295 = system: SF-295
SF-539 = system: SF-539
SK-MEL-28 = system: SK-MEL-28
SK-MEL-2 = system: SK-MEL-2
SK-MEL-5 = system: SK-MEL-5
SK-OV-3 = system: SK-OV-3
SN12C = system: SN12C
SNB-19 = system: SNB-19
SNB-75 = system: SNB-75
SR = system: SR
SW-620 = system: SW-620
T47D = system: T47D
UACC-257 = system: UACC-257
UO-31 = system: UO-31
ACHN = system: ACHN
MCF7 = system: MCF7
TK-10 = system: TK-10
U-251 = system: U-251
UACC-62 = system: UACC-62
MDA-MB-231 = system: MDA-MB-231

In the case of `COc1cccc(/N=C/c2cc3cc(Br)ccc3nc2Cl)c1`, the GI50 (786-0) is reported as 2.91 µM (inactive), the GI50 (A549) is reported as > 50 µM (inactive) and the GI50 (BT-549) is reported as 47 µM (inactive). The GI50 (CAKI-1) was 7.06 µM (inactive), the GI50 (CCRF-CEM) was 4.78 µM (inactive) and the GI50 (COLO 205) was > 50 µM (inactive). The GI50 (DU-145) was 48.8 µM (inactive), the GI50 (EKVX) was > 50 µM (inactive) and the GI50 (HCC 2998) was 15 µM (inactive). The GI50 (HCT-116) was 11.2 µM (inactive), the GI50 (HCT-15) was 35.3 µM and the GI50 (HL-60) was 10 µM (inactive). The GI50 (HOP-62) was 41.4 µM (inactive), the GI50 (HOP-92) was 30.3 µM (inactive) and the GI50 (HT-29) was 27 µM (inactive). The GI50 (Hs-578T) was 40.6 µM (inactive), the GI50 (IGROV-1) was 12.6 µM (inactive) and the GI50 (K562) was 8.09 µM (inactive). The GI50 (KM12) was 9.75 µM (inactive), the GI50 (LOX IMVI) was 18.9 µM (inactive) and the GI50 (M14) was > 50 µM (inactive). For the same compound, the GI50 (MDA-MB-435) was 11.1 µM (inactive), the GI50 (MDA-N) was 13.6 µM (inactive) and the GI50 (MOLT-4) was 7.05 µM (inactive). For the same compound, the GI50 (Malme-3M) was > 50 µM (inactive), the GI50 (NCI-H226) was 5.58 µM (inactive) and the GI50 (NCI-H23) was 22.1 µM (inactive). The GI50 (NCI-H460) was 13.8 µM (inactive), the GI50 (NCI-H522) was 8.43 µM (inactive) and the GI50 (NCI/ADR-RES) was 17.2 µM (inactive). For the same compound, the GI50 (OVCAR-3) was 34.4 µM (inactive), the GI50 (OVCAR-4) was 0.736 µM (active) and the GI50 (OVCAR-5) was > 50 µM (inactive). For the same compound, the GI50 (OVCAR-8) was 2.95 µM (inactive), the GI50 (PC-3) was 8.67 µM (inactive) and the GI50 (RPMI-8226) was 2.96 µM (inactive). The GI50 (RXF 393) was 13.7 µM (inactive), the GI50 (SF-268) was 20.1 µM (inactive) and the GI50 (SF-295) was 39.4 µM (inactive). For the same compound, the GI50 (SF-539) was 13.1 µM (inactive), the GI50 (SK-MEL-28) was > 50 µM (inactive) and the GI50 (SK-MEL-2) was 13.7 µM (inactive). For the same compound, the GI50 (SK-MEL-5) was 36.1 µM (inactive), the GI50 (SK-OV-3) was 15.2 µM (inactive) and the GI50 (SN12C) was 15.5 µM (inactive). The GI50 (SNB-19) was > 50 µM (inactive), the GI50 (SNB-75) was 17.1 µM (inactive) and the GI50 (SR) was 1.85 µM (inactive). The GI50 (SW-620) was 11.8 µM (inactive), the GI50 (T47D) was 10.5 µM (inactive) and the GI50 (UACC-257) was 44.5 µM (inactive). For the same compound, the GI50 (UO-31) was 12.5 µM (inactive).

`CCOP(=O)(OCC)OC1CC(n2cc(C)c(=O)n(C)c2=O)OC1CO[Si](C)(C)C(C)(C)C` (stereo not given) was tested, and the GI50 (786-0) was > 100 µM (inactive), the GI50 (A549) was 55.1 µM (inactive) and the GI50 (ACHN) was > 100 µM (inactive). The GI50 (BT-549) was 55.1 µM (inactive), the GI50 (CAKI-1) was > 100 µM (inactive) and the GI50 (CCRF-CEM) was 61.2 µM (inactive). The GI50 (COLO 205) was > 100 µM (inactive), the GI50 (DU-145) was > 100 µM (inactive) and the GI50 (EKVX) was 24.4 µM (inactive). For the same compound, the GI50 (HCC 2998) was 62.4 µM (inactive), the GI50 (HCT-116) was 40.8 µM (inactive) and the GI50 (HCT-15) was > 100 µM. For the same compound, the GI50 (HL-60) was 18.1 µM (inactive), the GI50 (HOP-62) was 79.6 µM (inactive) and the GI50 (HT-29) was > 100 µM (inactive). For the same compound, the GI50 (Hs-578T) was 46.6 µM (inactive), the GI50 (IGROV-1) was > 100 µM (inactive) and the GI50 (K562) was 48.4 µM (inactive). The GI50 (KM12) was 75.2 µM (inactive), the GI50 (LOX IMVI) was > 100 µM (inactive) and the GI50 (M14) was > 100 µM (inactive). For the same compound, the GI50 (MCF7) was 73.1 µM (inactive), the GI50 (MDA-MB-435) was > 100 µM (inactive) and the GI50 (MDA-N) was > 100 µM (inactive). For the same compound, the GI50 (MOLT-4) was 37 µM (inactive), the GI50 (Malme-3M) was > 100 µM (inactive) and the GI50 (NCI-H226) was > 100 µM (inactive). For the same compound, the GI50 (NCI-H23) was > 100 µM (inactive), the GI50 (NCI-H460) was 58.3 µM (inactive) and the GI50 (NCI-H522) was 32.1 µM (inactive). The GI50 (NCI/ADR-RES) was 46.5 µM (inactive), the GI50 (OVCAR-3) was > 100 µM (inactive) and the GI50 (OVCAR-4) was > 100 µM (inactive). The GI50 (OVCAR-5) was > 100 µM (inactive), the GI50 (OVCAR-8) was > 100 µM (inactive) and the GI50 (PC-3) was 29.1 µM (inactive). The GI50 (RPMI-8226) was 25.2 µM (inactive), the GI50 (RXF 393) was 21.6 µM (inactive) and the GI50 (SF-268) was > 100 µM (inactive). The GI50 (SF-295) was 67 µM (inactive), the GI50 (SF-539) was > 100 µM (inactive) and the GI50 (SK-MEL-28) was > 100 µM (inactive). For the same compound, the GI50 (SK-MEL-2) was > 100 µM (inactive), the GI50 (SK-MEL-5) was 58.9 µM (inactive) and the GI50 (SK-OV-3) was > 100 µM (inactive). For the same compound, the GI50 (SN12C) was 7.06 µM (inactive), the GI50 (SNB-19) was > 100 µM (inactive) and the GI50 (SNB-75) was 75.9 µM (inactive). The GI50 (SR) was 37.7 µM (inactive), the GI50 (SW-620) was > 100 µM (inactive) and the GI50 (T47D) was 17.8 µM (inactive). The GI50 (TK-10) was > 100 µM (inactive), the GI50 (U-251) was > 100 µM (inactive) and the GI50 (UACC-257) was > 100 µM (inactive). For the same compound, the GI50 (UACC-62) was > 100 µM (inactive) and the GI50 (UO-31) was 2.9 µM (inactive).

In the case of `O=P1(c2ccccc2)C(c2ccccc2)CCC1c1ccccc1` (stereo not given), the GI50 (786-0) is reported as > 100 µM (inactive), the GI50 (A549) is reported as 65.8 µM (inactive) and the GI50 (BT-549) is reported as 29.7 µM (inactive). The GI50 (CAKI-1) was 16.4 µM (inactive), the GI50 (CCRF-CEM) was 21.4 µM (inactive) and the GI50 (COLO 205) was 66.7 µM (inactive). For the same compound, the GI50 (DU-145) was > 100 µM (inactive), the GI50 (EKVX) was 29.5 µM (inactive) and the GI50 (HCC 2998) was > 100 µM (inactive). The GI50 (HCT-116) was 35.6 µM (inactive), the GI50 (HCT-15) was 28.8 µM and the GI50 (HL-60) was 10.2 µM (inactive). For the same compound, the GI50 (HOP-62) was > 100 µM (inactive), the GI50 (HOP-92) was 45 µM (inactive) and the GI50 (Hs-578T) was > 100 µM (inactive). The GI50 (IGROV-1) was 82.6 µM (inactive), the GI50 (K562) was 10.8 µM (inactive) and the GI50 (KM12) was 30 µM (inactive). For the same compound, the GI50 (LOX IMVI) was 41.1 µM (inactive), the GI50 (M14) was 68.5 µM (inactive) and the GI50 (MCF7) was > 100 µM (inactive). The GI50 (MDA-MB-231) was 42.9 µM (inactive), the GI50 (MDA-MB-435) was 34.9 µM (inactive) and the GI50 (MDA-N) was 15.1 µM (inactive). The GI50 (MOLT-4) was 32.2 µM (inactive), the GI50 (NCI-H226) was 91.8 µM (inactive) and the GI50 (NCI-H23) was 48.4 µM (inactive). For the same compound, the GI50 (NCI-H522) was 26.4 µM (inactive), the GI50 (OVCAR-3) was 53 µM (inactive) and the GI50 (OVCAR-8) was 91.4 µM (inactive). For the same compound, the GI50 (PC-3) was 33.6 µM (inactive), the GI50 (RPMI-8226) was 22.1 µM (inactive) and the GI50 (RXF 393) was 96.8 µM (inactive). For the same compound, the GI50 (SF-268) was > 100 µM (inactive), the GI50 (SF-295) was 32.1 µM (inactive) and the GI50 (SF-539) was > 100 µM (inactive). The GI50 (SK-MEL-28) was > 100 µM (inactive), the GI50 (SK-MEL-5) was 37.2 µM (inactive) and the GI50 (SK-OV-3) was 40.9 µM (inactive). The GI50 (SN12C) was 34.9 µM (inactive), the GI50 (SNB-19) was > 100 µM (inactive) and the GI50 (SNB-75) was 57.3 µM (inactive). The GI50 (SW-620) was 89.9 µM (inactive), the GI50 (TK-10) was 71 µM (inactive) and the GI50 (UACC-257) was 71.1 µM (inactive). The GI50 (UACC-62) was 50.7 µM (inactive) and the GI50 (UO-31) was 66.1 µM (inactive).
